Reference: article PMC5128750, “Structure–Activity Relationship Studies Using Natural and Synthetic Okadaic Acid/Dinophysistoxin Toxins” (Marine Drugs, 2016)
Where “and” joins values, the source holds several entries; their conditions need not be identical. Equal values may be shown once. Read-outs that look alike come from different tables or passages of the source.

Assays:
[1] = biological target: T1, PP5 (Homo sapiens, UniProt P53041); test: PP5 inhibition, fluorimetric DiFMUP assay; type: biochemical; parameters: purchased EMD Millipore Corporation 14-778; host or cells: E. coli; conditions: for IC50: PP5, DiFMUP 50 μM; for Rel. Potency / TEF: PP5, relative to OA
T1 sequence (P53041 1-499): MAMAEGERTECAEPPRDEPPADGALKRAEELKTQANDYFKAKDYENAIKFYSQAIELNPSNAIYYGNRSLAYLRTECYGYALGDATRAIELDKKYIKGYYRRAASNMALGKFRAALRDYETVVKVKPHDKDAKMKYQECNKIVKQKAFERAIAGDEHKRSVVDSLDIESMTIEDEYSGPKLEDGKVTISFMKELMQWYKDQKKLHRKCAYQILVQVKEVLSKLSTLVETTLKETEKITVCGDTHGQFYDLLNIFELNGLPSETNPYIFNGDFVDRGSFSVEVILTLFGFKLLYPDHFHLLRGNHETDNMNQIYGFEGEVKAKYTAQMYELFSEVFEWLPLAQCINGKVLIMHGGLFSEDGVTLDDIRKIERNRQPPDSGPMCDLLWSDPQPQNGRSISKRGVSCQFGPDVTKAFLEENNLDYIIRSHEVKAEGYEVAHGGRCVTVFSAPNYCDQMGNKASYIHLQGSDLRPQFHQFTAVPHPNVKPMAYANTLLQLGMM
Experimental: Figure 3 Effect of various DSP toxins on protein phosphatase activity. The activities of protein phosphatases (A) PP2a, (B) PP1, and (C) PP5 were assessed in the presence of various concentrations of natural OA, natural DTX1, natural DTX2, synthetic DTX2, or synthetic 2-epi-DTX2. All data (mean ± SE; n = 3 or 4) were normalized to the control. […], variable slope, non-linear dose-response analysis was performed and IC50 and 95% confidence interval values were calculated (Table 2).
Preliminary studies were conducted by Millipore (EMD Millipore Corporation, Darmstadt, Germany) using their PhosphataseProfiler that assessed the activities of 21 human and yeast phosphatases in the presence of DTX2. Phosphatase sensitivities to DTX2 were more extensively characterized using 96-well fluorescence-based assays in the presence of various natural and synthetic OA/DTXs. Briefly, the assay tests the ability of toxins to inhibit the activity of purified PP2A (EMD Millipore Corporation, Darmstadt, Germany, cat. #14-111; human red blood cells), purified PP1 (EMD Millipore Corporation, Darmstadt, Germany, cat. #14-110; rabbit skeletal muscle), or purified PP5 (EMD Millipore Corporation, Darmstadt, Germany, cat. #14-778; recombinant enzyme expressed in E. coli cells) against the fluorimetric substrate, 6,8-difluro-4-methyl umbelliferyl phosphate (DiFMUP; 50 μM final) (Invitrogen ThermoFisher Scientific, Waltham, MA, USA, cat. #D6567). DiFMUP solutions were preincubated with toxins or vehicle controls (all containing 1% DMSO final) for 10 min prior to addition of one of the PP enzymes (0.4, 0.4, and 0.02 units/well for PP2a, PP1, and PP5). PP2a assays were performed in Tris-HCl (40 mM, pH 8.4), MgCl2 (34 mM), EDTA (4 mM), and DTT (4 mM), PP1 assays were performed in Tris-HCl (100 mM, pH 7.5), MnCl2 (0.5 mM), EDTA (0.2 mM), DTT (4 mM) and BSA (0.4 mg/mL), and PP5 assays were performed in HEPES (57 mM, pH 7.2), NaCl (150 mM), EDTA (1 mM), MnCl2 (1 mM), DTT (0.167 mM), glycerol (0.83%), BSA (0.167 mg/mL), Brij-35 (0.002%) (EMD Millipore Corporation, Darmstadt, Germany, pers. comm.). All reactions (50 μL) were performed in black, 96-well, half area plates (Corning Incorporated, Corning, NY, USA) for 2 h at 35 °C with 5 s orbital shaking (ca. 600 rpm) just prior to each reading (every 2 min). PP activity was determined by measuring the fluorescence (excitation 360 nm, emission 470 nm) of each well using a fluorometric plate reader (Fluostar, BMG Lab Technologies, Ortenberg, Germany). All data (mean ± SE, n ≥ 3) are presented as normalized percentages relative to vehicle controls (100%). IC50 determinations were calculated using four-parameter, variable slope, non-linear regression analysis (GraphPad Prism, ver. 5.0c, San Diego, CA, USA).

[2] = test system: PP1; type: biochemical, rabbit
[3] = biological target: T2, PP2A (Homo sapiens, UniProt P67775); test: biochemical; type: biochemical
T2 construct: purified PP2A (EMD Millipore Corporation, Darmstadt, Germany, cat. #14-111; human red blood cells); purchased EMD Millipore Corporation 14-111; host or cells: human red blood cells (tissue-purified)

[4] = test system: Jurkat T lymphocyte cells; test: cells; type: cell-based, human
[5] = test system: PP2a; conditions: relative to OA, using data from Aune et al. and Takai et al.; cited from earlier work
[6] = biological target: T2, PP2A; type: biochemical; conditions: 200 nM, n = 2
[7] = biological target: T3, PP1α (Homo sapiens, UniProt P62136); type: biochemical; conditions: 200 nM, n = 2
T3 construct: purchased EMD Millipore Corporation (PhosphataseProfiler service)

[8] = test system: CD45, DUSP22, HePTP, LMPTP-A, LMPTP-B, MKP5, PTPMEG1, PTP-MEG2, PTP-1B, PTPN22, PTPβ, RPTPμ, SHP-1, SHP-2, TCPTP, TMDP, VHR, YopH; type: biochemical, human and yeast; conditions: 200 nM, n = 2
[9] = biological target: T1, PP5; type: biochemical; parameters: purchased EMD Millipore Corporation (PhosphataseProfiler service); conditions: 200 nM, n = 2
[10] = test system: mice; conditions: relative to OA, cited from earlier work; for TEF (European Food Safety Authority): based on LD50 values from exposed mice

T2 sequence (P30153 2-589): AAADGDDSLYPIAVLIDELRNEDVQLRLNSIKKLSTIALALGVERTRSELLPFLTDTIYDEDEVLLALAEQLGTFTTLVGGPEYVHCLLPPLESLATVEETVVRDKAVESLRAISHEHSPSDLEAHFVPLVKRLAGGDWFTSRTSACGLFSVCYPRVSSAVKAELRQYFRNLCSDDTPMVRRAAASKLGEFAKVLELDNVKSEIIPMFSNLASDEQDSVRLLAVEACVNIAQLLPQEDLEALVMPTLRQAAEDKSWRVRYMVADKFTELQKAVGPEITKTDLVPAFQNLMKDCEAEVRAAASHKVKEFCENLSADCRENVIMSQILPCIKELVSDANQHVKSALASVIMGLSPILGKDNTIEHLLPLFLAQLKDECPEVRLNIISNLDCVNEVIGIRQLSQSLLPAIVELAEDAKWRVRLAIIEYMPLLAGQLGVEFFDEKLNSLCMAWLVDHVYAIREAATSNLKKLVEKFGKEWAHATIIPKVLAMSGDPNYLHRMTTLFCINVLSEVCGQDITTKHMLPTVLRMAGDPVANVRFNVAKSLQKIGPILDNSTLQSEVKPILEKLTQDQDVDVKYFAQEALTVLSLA
T2 sequence (P67775 whole entry): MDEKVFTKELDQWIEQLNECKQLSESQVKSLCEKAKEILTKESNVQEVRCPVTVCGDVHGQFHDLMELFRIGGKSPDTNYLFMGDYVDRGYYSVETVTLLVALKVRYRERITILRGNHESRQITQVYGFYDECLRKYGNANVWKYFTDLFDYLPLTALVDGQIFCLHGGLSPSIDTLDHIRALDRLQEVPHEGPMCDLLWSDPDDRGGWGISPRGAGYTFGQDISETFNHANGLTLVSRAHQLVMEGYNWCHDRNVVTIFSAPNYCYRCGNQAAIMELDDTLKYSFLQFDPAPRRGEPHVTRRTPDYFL
T3 sequence (P62136 whole entry): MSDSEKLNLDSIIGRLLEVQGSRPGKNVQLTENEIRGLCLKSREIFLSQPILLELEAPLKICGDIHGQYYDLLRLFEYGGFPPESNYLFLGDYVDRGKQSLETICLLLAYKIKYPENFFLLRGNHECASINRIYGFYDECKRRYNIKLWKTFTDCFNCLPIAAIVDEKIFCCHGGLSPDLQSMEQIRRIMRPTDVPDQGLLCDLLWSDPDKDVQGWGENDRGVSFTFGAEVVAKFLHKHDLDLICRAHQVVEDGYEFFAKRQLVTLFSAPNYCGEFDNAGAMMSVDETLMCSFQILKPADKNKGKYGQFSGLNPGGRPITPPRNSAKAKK

## C=C1C(O)C2OC3(CCC(C=CC(C)C4CC(C)=CC5(OC(CC(C)(O)C(=O)O)CCC5O)O4)O3)CCC2OC1C(O)CC(C)C1CCCC2(OCCCC2C)O1 (stereo not drawn) [syn. DTX2, Dinophysistoxin-2]
[1]
  IC50: 4 nM and 3.95 nM
  Rel. Potency / TEF: 0.582
[2]
  IC50: 82.6 nM
  Rel. Potency / TEF: 0.305
[3]
  IC50: 1.35 nM
  Rel. Potency / TEF: 0.345
[4]
  EC50: 21.8 nM and 18.2 nM and 15.4 nM
  Rel. Potency (as per 48 h Data) / TEF: 1.1 and 1.07

## C=C1C(O)C2OC3(CCC(C=CC(C)C4CC(C)=CC5(OC(CC(C)(O)C(=O)O)CCC5O)O4)O3)CCC2OC1C(O)CC(C)C1CCCC2(OCCCC2C)O1 (stereo not drawn) [syn. 2-epi-DTX2, 2-epi-dinophysistoxin-2]
[1]
  IC50: 541 nM
  Rel. Potency / TEF: 0.004
[2]
  IC50: 3110 nM
  Rel. Potency / TEF: 0.008
[3]
  IC50: 137 nM
  Rel. Potency / TEF: 0.003
[4]
  EC50: 4750 nM and 4260 nM and 3740 nM
  Rel. Potency (as per 48 h Data) / TEF: 0.004

## C=C1C(O)C2OC3(CCC(C=CC(C)C4CC(C)=CC5(OC(CC(C)(O)C(=O)O)CCC5O)O4)O3)CCC2OC1C(O)CC(C)C1CCCC2(OCCCC2C)O1 (centres unmarked) [nat. DTX2, Dinophysistoxin-2]
[5]
  TEF by Huhn et al.: 0.48
[6]
  Inhibition of phosphatase activity: inhibited
[7]
  Inhibition of phosphatase activity: inhibited
[1]
  IC50: 5.2 nM and 5.25 nM
  Rel. Potency / TEF: 0.438
[8]
  Inhibition of phosphatase activity: only PP1α, PP2a, and PP5 were inhibited
[2]
  IC50: 76.4 nM
  Rel. Potency / TEF: 0.330
[3]
  IC50: 0.99 nM and 0.987 nM
  Rel. Potency / TEF: 0.472
[9]
  Inhibition of phosphatase activity: inhibited
[10]
  TEF (European Food Safety Authority): 0.6
  TEF proposed by Aune et al.: 0.6
[4]
  Rel. Potency (as per 48 h Data) / TEF: 1.6 and 1.58

## C=C1[C@@H](O)[C@@H]2O[C@]3(CC[C@H](/C=C/[C@@H](C)[C@@H]4CC(C)=C[C@@]5(O[C@H](C[C@@](C)(O)C(=O)O)CC[C@H]5O)O4)O3)CC[C@H]2O[C@@H]1[C@@H](O)C[C@H](C)[C@H]1O[C@@]2(CCCCO2)CC[C@H]1C [nat. OA, Okadaic Acid]
[1]
  IC50: 2.3 nM
  Rel. Potency / TEF: 1.000
[2]
  IC50: 25.2 nM
  Rel. Potency / TEF: 1.000
[3]
  Rel. Potency / TEF: 1.000
[3]; IC50
  IC50: 0.47 nM and 0.466 nM
[10]
  TEF (European Food Safety Authority): 1
[4]
  Rel. Potency (as per 48 h Data) / TEF: 1.000
[4]; Homo sapiens, Jurkat, 24 h
  EC50: 32.8 nM
[4]; Homo sapiens, Jurkat, 48 h
  EC50: 19.5 nM
[4]; Homo sapiens, Jurkat, 72 h
  EC50: 9.16 nM

## C=C1C(O)C2OC3(CCC(C=CC(C)C4CC(C)=CC5(OC(CC(C)(O)C(=O)O)CCC5O)O4)O3)CCC2OC1C(O)CC(C)C1OC2(CCC1C)OCCCC2C (centres unmarked) [nat. DTX1, Dinophysistoxin-1]
[5]
  TEF by Huhn et al.: 1.58
[1]
  IC50: 1.3 nM
  Rel. Potency / TEF: 1.8 and 1.769
[2]
  IC50: 34.8 nM
  Rel. Potency / TEF: 0.72 and 0.724
[3]
  IC50: 0.31 nM and 0.306 nM
  Rel. Potency / TEF: 1.5 and 1.523
[10]
  TEF (European Food Safety Authority): 1
[4]
  Rel. Potency (as per 48 h Data) / TEF: 0.9 and 0.87
[4]; Homo sapiens, Jurkat, 24 h
  EC50: 24.6 nM
[4]; Homo sapiens, Jurkat, 48 h
  EC50: 22.2 nM
[4]; Homo sapiens, Jurkat, 72 h
  EC50: 11.4 nM
